Experimental data published in US8536187B2 (Gilead Sciences, Inc., priority 2008, dated 2013).

Columns and labels:
[1] = test system: HCV replicon in human hepatoma Huh-7 cell line; experiment: Anti-HCV replicon assay, EC50 (luciferase luminescence); format: cell-based; details: Hepatitis C virus, Huh-7, 72 h
Experimental: (§1) The anti-HCV activity of the pyrido[3,2-d]pyrimidine derivatives of this invention was tested in a human hepatoma Huh-7 cell line harboring a HCV replicon. The assay comprised the following steps: • Step 1: compound preparation and serial dilution: serial dilution is performed in 50% DMSO in a 384-well plate. A solution containing a compound at 100-fold concentration of the starting final serial dilution concentration was prepared in 50% DMSO and added to the pre-specified wells in column 1 of a polypropylene 384-well plate. The plate was then placed on a Precision 2000 Workstation to start the serial dilution. After the serial dilution, a volume of 2 μL of the solution was transferred from the 384-well plate to a 96-well cell culture plate containing 100 μL of cell media on a Biomek FX Workstation. The DMSO concentration in the final assay condition was 0.5% after cells are added to the plate and the total volume in each well is brought to 200 μL. • Step 2: to each well of the serial dilution plate prepared above, 100 μL of cell media containing 6000 suspended Huh-7 HCV replicon cells was added with a Multidrop workstation. The plates were incubated for 3 days at 37° C. with 5% CO2. • Step 3: detection: • a) for the EC50 assay, the media in a 96-well cell culture plate was aspirated with a Biotek EL405 plate-washer. A volume of 200 μL of a solution containing a 1:1 mixture of cell-lysis buffer (Promega, Luciferase Cell Culture Lysis 5× Reagent, cat. #E1531) and luciferase substrate solution (Promega, Luciferase Assay, cat.# E4550) was added to each well of the plate with Multidrop. The plate was incubated for 30 minutes at room temperature before the luminescence signal was measured with a TopCount plate-reader. • b) for the CC50 assay, a volume of 100 μL of pre-mixed CellTiter-Glo (Promega, cat.# G7572) solution is added directly to the cell culture in each well of the plate and the luminescence signal is measured with a TopCount plate-reader after 10 minutes of incubation at room temperature.

[2] = CC50 assay (CellTiter-Glo) in Huh-7 HCV replicon cells; format: cell-based; details: human
Experimental: as §1

| SMILES | EC50 [1] | CC50 at 3 days ([2]; Table 2, 3 days incubation) | CC50 at 3 days ([2]; Table 1, 3 days incubation) |
| --- | --- | --- | --- |
| NS(=O)(=O)c1cc(Cl)cc(CNc2nc(NC3(C(F)(F)F)CC3)c3nc(-c4ccc(N5CNCC5=O)cc4)ccc3n2)c1 [Example 45, 3-chloro-5-((6-(4-(5-oxoimidazolidin-1-yl)phenyl)-4-(1-(trifluoromethyl)cyclopropylamino)pyrido [3,2-d]pyrimidin-2-ylamino)methyl)benzenesulfonamide] | < 100 nM | 1000 to 10000 nM | – |
| NS(=O)(=O)c1ccc(CNc2nc(NC3(C(F)(F)F)CC3)c3nc(-c4cccc(N5CCCS5(=O)=O)c4)ccc3n2)cc1 [Example 51, 4-((6-(3-(1,1-dioxo-isothiazolidin-2-yl)phenyl)-4-(1-(trifluoromethyl)cyclopropyl-amino)pyrido[3,2-d]pyrimidin-2-ylamino)methyl)benzene-sulfonamide] | 250 to 2000 nM | 1000 to 10000 nM | – |
| CS(=O)(=O)Nc1cccc(CNc2nc(NC3(C(F)(F)F)CC3)c3nc(-c4ccc(F)cc4)ccc3n2)c1 [Example 87, N-(3-((6-(4-fluorophenyl)-4-(1-(trifluoromethyl)cyclopropyl-amino)pyrido[3,2-d]pyrimidin-2-ylamino)methyl)phenyl) methanesulfonamide] | 100 to 250 nM | > 10000 nM | – |
| C[C@@H](Nc1nc(NC2(C(F)(F)F)CCC2)c2nc(-c3ccc(F)cc3)ccc2n1)c1ccc(S(N)(=O)=O)cc1 [Example 72, (R)-4-(1-(6-(4-fluorophenyl)-4-(1-(trifluoromethyl)cyclo-butylamino)pyrido[3,2-d]pyrimidin-2-ylamino)ethyl) benzenesulfonamide] | 250 to 2000 nM | > 10000 nM | – |
| NS(=O)(=O)c1ccc(Cl)c(CNc2nc(NC3(C(F)(F)F)CC3)c3nc(-c4ccc(F)cc4)ccc3n2)c1 [Example 41, 4-chloro-3-((6-(4-fluorophenyl)-4-(1-(trifluoromethyl)cyclopropyl-amino)pyrido[3,2-d]pyrimidin-2-ylamino)methyl)benzene-sulfonamide] | 100 to 250 nM | 1000 to 10000 nM | – |
| COCC#Cc1ccc2nc(NCc3ccc(S(N)(=O)=O)cc3)nc(NCC(F)(F)F)c2n1 [Example 283, 4-((6-(3-methoxyprop-1-ynyl)-4-(2,2,2-trifluoroethylamino)pyrido[3,2-d]pyrimidin-2-ylamino)methyl)benzene-sulfonamide] | 100 to 250 nM | > 10000 nM | – |
| Cc1cc(S(N)(=O)=O)ccc1C(C)Nc1nc(NCC(F)(F)F)c2nc(-c3ccc(F)cc3)ccc2n1 (stereo not shown) [Example 10, 4-{1-[6-(4-Fluoro-phenyl)-4-(2,2,2-trifluoro-ethylamino)-pyrido[3,2-d]pyrimidin-2-ylamino]-ethyl}-3-methyl-benzenesulfonamide] | 100 to 250 nM | – | < 10000 nM |
| COc1ccc(-c2ccc3nc(NCc4ccc(S(N)(=O)=O)cc4)nc(NCC(F)(F)F)c3n2)cc1C(F)(F)F [Example 228, 4-((6-(4-methoxy-3-(trifluoromethyl)phenyl)-4-(2,2,2-trifluoroethylamino)pyrido[3,2-d]pyrimidin-2-ylamino)methyl)benzene-sulfonamide] | 250 to 2000 nM | > 10000 nM | – |
| Fc1cc(-c2ccc3nc(NCc4cccc(-n5cncn5)c4)nc(NC4(C(F)(F)F)CC4)c3n2)cnc1NC1CC1 [Example 62, N^2-(3-(1H-1,2,4-triazol-1-yl)benzyl)-6-(6-(cyclopropylamino)-5-fluoropyridin-3-yl)-N^4-(1-(trifluoromethyl)cyclopropyl) pyrido[3,2-d]pyrimidine-2,4-diamine] | < 100 nM | > 10000 nM | – |
| O=C1NCCN1c1ccc(-c2ccc3nc(NCc4ccc(-n5cncn5)cc4)nc(NC4(C(F)(F)F)CC4)c3n2)cc1 [Example 129, 1-(4-(2-(4-(1H-1,2,4-triazol-1-yl)benzylamino)-4-(1-(trifluoromethyl)cyclopropyl-amino)pyrido[3,2-d]pyrimidin-6-yl)phenyl)imidazolidin-2-one] | < 100 nM | < 1000 nM | – |
| CS(=O)(=O)c1cccc(-c2ccc3nc(NCc4ccc(-n5cncn5)cc4)nc(OC4CCC4)c3n2)c1 [Example 202, N-(4-(1H-1,2,4-triazol-1-yl)benzyl)-4-cyclobutoxy-6-(3-(methylsulfonyl)phenyl)pyrido [3,2-d]pyrimidin-2-amine] | < 100 nM | > 10000 nM | – |
| CS(=O)(=O)c1cc(-c2ccc3nc(NCc4ccc(-n5cncn5)cc4)nc(OC4CCC4)c3n2)ccc1OC(F)F [Example 204, N-(4-(1H-1,2,4-triazol-1-yl)benzyl)-4-cyclobutoxy-6-(4-(difluoromethoxy)-3-(methylsulfonyl)phenyl)pyrido [3,2-d]pyrimidin-2-amine] | < 100 nM | 1000 to 10000 nM | – |
| CC(C)(O)CNc1nc(NCC(F)(F)F)c2nc(-c3cccc(S(C)(=O)=O)c3)ccc2n1 [Example 159, 2-methyl-1-(6-(3-(methylsulfonyl)phenyl)-4-(2,2,2-trifluoroethylamino)pyrido[3,2-d]pyrimidin-2-ylamino)propan-2-ol] | 100 to 250 nM | > 10000 nM | – |
| NS(=O)(=O)c1cc(CNc2nc(NC3(C(F)(F)F)CC3)c3nc(-c4ccc(F)cc4)ccc3n2)cc(C(F)(F)F)c1 [Example 26, 3-{[6-(4-fluorophenyl)-4-(1-trifluoromethyl-cyclopropylamino)-pyrido[3,2-d]pyrimidin-2-ylamino]-methyl}-5-trifluoromethyl-benzenesulfonamide] | 100 to 250 nM | > 10000 nM | – |
| NS(=O)(=O)c1ccc(CNc2nc(OC3CC3)c3nc(C#CC4CC4)ccc3n2)cc1 [Example 286, 4-((4-cyclopropoxy-6-(2-cyclopropylethynyl)pyrido [3,2-d]pyrimidin-2-ylamino)methyl)benzenesulfonamide] | 100 to 250 nM | > 10000 nM | – |
| CCOc1nc(NCc2ccc(-n3cncn3)cc2)nc2ccc(-c3cccc(S(C)(=O)=O)c3)nc12 [Example 190, N-(4-(1H-1,2,4-triazol-1-yl)benzyl)-4-ethoxy-6-(3-(methylsulfonyl)phenyl)pyrido [3,2-d]pyrimidin-2-amine] | < 100 nM | > 10000 nM | – |
| CS(=O)(=O)c1cccc(-c2ccc3nc(NCc4ccc(S(N)(=O)=O)cc4)nc(OC4CC4)c3n2)c1 [Example 22, 4-{[4-Cyclopropoxy-6-(3-methanesulfonyl-phenyl)-pyrido[3,2-d]pyrimidin-2-ylamino]-methyl}-benzenesulfonamide] | < 100 nM | – | > 25000 nM |
| CS(=O)(=O)c1cccc(-c2ccc3nc(NCc4ccc(-n5cncn5)cc4)nc(NCC(F)(F)Cl)c3n2)c1 [Example 196, N^2-(4-(1H-1,2,4-triazol-1-yl)benzyl)-N^4-(2-chloro-2,2-difluoroethyl)-6-(3-(methylsulfonyl)phenyl)pyrido [3,2-d]pyrimidine-2,4-diamine] | < 100 nM | > 10000 nM | – |
| NS(=O)(=O)c1ccc(CNc2nc(NC3(C(F)(F)F)CC3)c3nc(-c4ccc(OC(F)F)cc4)ccc3n2)cc1 [Example 61, 4-((6-(4-(difluoromethoxy)phenyl)-4-(1-(trifluoromethyl)cyclopropylamino)pyrido[3,2-d]pyrimidin-2-ylamino)methyl) benzenesulfonamide] | < 100 nM | 1000 to 10000 nM | – |
| CC(C)Oc1nc(NCc2ccc(-n3cncn3)cc2)nc2ccc(-c3cccc(S(C)(=O)=O)c3)nc12 [Example 198, N-(4-(1H-1,2,4-triazol-1-yl)benzyl)-4-isopropoxy-6-(3-(methylsulfonyl)phenyl)pyrido [3,2-d]pyrimidin-2-amine] | < 100 nM | > 10000 nM | – |
